Data taken from PubChem BioAssay AID256 (DTP/NCI, 2004).
Several values for one entry are separate records, joined by “and”; a condition that tells them apart may be missing. Equal entries are not always repeated. Inconclusive results and toxic doses are left out.

System: CD2F1 mice, L1210 leukemia ip, survival T/C
Experiment: NCI In Vivo Anticancer Drug Screen. Data for tumor model L1210 Leukemia (intraperitoneal) in CD2F1 (CDF1) mice
Settings: higher = longer survival
Procedure, shortened: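 Mice carrying a transplanted tumor received test compound or vehicle alone. The value is the measurement in the treated group divided by that in the vehicle-treated control group.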

[1] = endpoint: mean survival time, dose: 100.0 mg/kg/injection, schedule: Q01DX001 (ip), vehicle: saline with Tween-80
[2] = endpoint: mean survival time, dose: 200.0 mg/kg/injection, schedule: Q01DX001 (ip), vehicle: saline with Tween-80
[3] = endpoint: mean survival time, dose: 400.0 mg/kg/injection, schedule: Q01DX001 (ip), vehicle: saline with Tween-80
[4] = endpoint: mean survival time, dose: 100.0 mg/kg/injection, schedule: Q04DX003 (ip), vehicle: saline with Tween-80
[5] = endpoint: mean survival time, dose: 200.0 mg/kg/injection, schedule: Q04DX003 (ip), vehicle: saline with Tween-80
[6] = endpoint: mean survival time, dose: 400.0 mg/kg/injection, schedule: Q04DX003 (ip), vehicle: saline with Tween-80
[7] = endpoint: mean survival time, dose: 100.0 mg/kg/injection, schedule: Q04DX003 (ip), vehicle: saline
[8] = endpoint: mean survival time, dose: 200.0 mg/kg/injection, schedule: Q04DX003 (ip), vehicle: saline
[9] = endpoint: mean survival time, dose: 200.0 mg/kg/injection, schedule: Q01DX009 (ip), vehicle: saline with Tween-80
[10] = endpoint: mean survival time, dose: 400.0 mg/kg/injection, schedule: Q01DX009 (ip), vehicle: saline with Tween-80
[11] = endpoint: mean survival time, dose: 50.0 mg/kg/injection, schedule: Q01DX009 (ip), vehicle: saline with Tween-80
[12] = endpoint: mean survival time, dose: 100.0 mg/kg/injection, schedule: Q01DX009 (ip), vehicle: saline with Tween-80

Compound: O=[N+]([O-])O.[NH-]C1CCCCC1[NH-].[NH-]C1CCCCC1[NH-].[NH-]C1CCCCC1[NH-].[OH-].[OH-].[OH-].[Pt+4].[Pt+4].[Pt+4] (configuration not stated)
- T/C (endpoint: mean survival time, dose: 20.0 mg/kg/injection, schedule: Q04DX003 (ip), vehicle: water): 87 % of control

Compound: Nc1ncnc2oc(-c3ccccc3)c(-c3ccccc3)c12
- T/C [1]: 87 % of control
- T/C [2]: 89 % of control
- T/C [3]: 87 % of control

Compound: CCOc1ccc2c(O)csc2c1
- T/C [4]: 90 % of control
- T/C [5]: 91 % of control
- T/C [6]: 91 % of control

Compound: O=C(Nc1ccc(Cl)c(Cl)c1)OCC#CCOC(=O)Nc1ccc(Cl)c(Cl)c1
- T/C [7]: 95 % of control
- T/C [8]: 95 % of control
- T/C (endpoint: mean survival time, dose: 400.0 mg/kg/injection, schedule: Q04DX003 (ip), vehicle: saline): 91 % of control

Compound: COc1cc(/C=C/c2nc3ccccc3nc2/C=C/c2cc(OC)c(OC)c(OC)c2)cc(OC)c1OC
- T/C [9]: 94 % of control
- T/C [10]: 100 % of control
- T/C [6]: 93 % of control

Compound: COC1OC(COC(=O)c2ccccc2)C2OC(=O)OC12 (configuration not stated)
- T/C [4]: 93 % of control
- T/C [5]: 90 % of control
- T/C [6]: 102 % of control

Compound: CN(C)C/C(=N\Oc1ccc([N+](=O)[O-])cc1[N+](=O)[O-])c1ccc(Cl)cc1
- T/C [11]: 91 % of control
- T/C [1]: 98 % of control
- T/C [12]: 88 % of control
- T/C [2]: 102 % of control
- T/C [9]: 91 % of control
- T/C [3]: 95 % of control

Compound: O=C(/C=C\c1ccc(Cl)cc1)c1ccccc1
- T/C [1]: 100 % of control
- T/C [2]: 96 % of control
- T/C [3]: 96 % of control

Compound: CC(C(=O)O)C(C(=O)O)C(=O)O (configuration not stated)
- T/C [7]: 93 % of control
- T/C [8]: 96 % of control

Compound: CC1OC(OCc2ccc(-c3ccccc3)cc2)CC(N)C1O (configuration not stated)
- T/C (endpoint: mean survival time, dose: 0.78 mg/kg/injection, schedule: Q01DX001 (ip), vehicle: water): 94 % of control
- T/C (endpoint: mean survival time, dose: 1.56 mg/kg/injection, schedule: Q01DX001 (ip), vehicle: water): 97 % of control
- T/C (endpoint: mean survival time, dose: 3.13 mg/kg/injection, schedule: Q01DX001 (ip), vehicle: water): 95 % of control
- T/C (endpoint: mean survival time, dose: 6.25 mg/kg/injection, schedule: Q01DX001 (ip), vehicle: water): 106 % of control
- T/C (endpoint: mean survival time, dose: 12.5 mg/kg/injection, schedule: Q01DX001 (ip), vehicle: water): 97 % of control
- T/C (endpoint: mean survival time, dose: 25.0 mg/kg/injection, schedule: Q01DX001 (ip), vehicle: water): 105 % of control
- T/C (endpoint: median survival time, dose: 1.56 mg/kg/injection, schedule: Q04DX003 (ip), vehicle: water): 106 % of control
- T/C (endpoint: median survival time, dose: 3.13 mg/kg/injection, schedule: Q04DX003 (ip), vehicle: water): 98 % of control
- T/C (endpoint: median survival time, dose: 6.25 mg/kg/injection, schedule: Q04DX003 (ip), vehicle: water): 109 % of control
- T/C (endpoint: median survival time, dose: 12.5 mg/kg/injection, schedule: Q04DX003 (ip), vehicle: water): 100 % of control
- T/C (endpoint: median survival time, dose: 25.0 mg/kg/injection, schedule: Q04DX003 (ip), vehicle: water): 106 % of control

Compound: O=[N+]([O-])c1ccc(Oc2nc(Cl)nc(Oc3ccc([N+](=O)[O-])cc3)n2)cc1
- T/C (endpoint: mean survival time, dose: 25.0 mg/kg/injection, schedule: Q04DX003 (ip), vehicle: Klucel (hydroxypropylcellulose) (HPC)): 93 % of control
- T/C (endpoint: mean survival time, dose: 50.0 mg/kg/injection, schedule: Q04DX003 (ip), vehicle: Klucel (hydroxypropylcellulose) (HPC)): 93 % of control
- T/C (endpoint: mean survival time, dose: 100.0 mg/kg/injection, schedule: Q04DX003 (ip), vehicle: Klucel (hydroxypropylcellulose) (HPC)): 86 % of control

Compound: O=C(CC(NC(=O)OCc1ccccc1)C(=O)OCc1ccccc1)OCc1ccccc1 (configuration not stated)
- T/C [12]: 106 % of control
- T/C [4]: 92 % of control
- T/C [9]: 98 % of control
- T/C [5]: 91 % of control
- T/C [10]: 97 % of control
- T/C [6]: 92 % of control

Compound: O=C1C(=O)C(Br)=C(Br)C(Br)=C1Br
- T/C [4]: 91 % of control
- T/C [5]: 91 % of control

Compound: CN(C)/N=C(\CBr)c1ccccc1
- T/C (endpoint: mean survival time, dose: 50.0 mg/kg/injection, schedule: Q01DX009 (ip), vehicle: saline sonified): 96 % of control
- T/C (endpoint: mean survival time, dose: 100.0 mg/kg/injection, schedule: Q01DX001 (ip), vehicle: saline): 102 % of control
- T/C (endpoint: mean survival time, dose: 100.0 mg/kg/injection, schedule: Q01DX009 (ip), vehicle: saline sonified): 103 % of control
- T/C (endpoint: mean survival time, dose: 200.0 mg/kg/injection, schedule: Q01DX001 (ip), vehicle: saline): 100 % of control

Compound: Clc1ncnc2c1ncn2CCCn1cnc2c(Cl)ncnc21
- T/C (endpoint: mean survival time, dose: 12.5 mg/kg/injection, schedule: Q01DX009 (ip), vehicle: Klucel (hydroxypropylcellulose) (HPC)): 94 % of control
- T/C (endpoint: mean survival time, dose: 25.0 mg/kg/injection, schedule: Q01DX009 (ip), vehicle: Klucel (hydroxypropylcellulose) (HPC)): 90 % of control
- T/C (endpoint: mean survival time, dose: 50.0 mg/kg/injection, schedule: Q01DX009 (ip), vehicle: Klucel (hydroxypropylcellulose) (HPC)): 94 % of control
- T/C (endpoint: mean survival time, dose: 100.0 mg/kg/injection, schedule: Q01DX009 (ip), vehicle: Klucel (hydroxypropylcellulose) (HPC)): 103 % of control
- T/C (endpoint: mean survival time, dose: 200.0 mg/kg/injection, schedule: Q01DX009 (ip), vehicle: Klucel (hydroxypropylcellulose) (HPC)): 101 % of control

Compound: Cc1cc2[nH]c(=O)[nH]c2cc1C
- T/C [11]: 103 % of control
- T/C [12]: 94 % of control
- T/C [9]: 102 % of control

Compound: COc1ccc(/C=C(\C#N)c2ccc(C)cc2)cc1OC
- T/C [12]: 101 % of control
- T/C [9]: 108 % of control
- T/C [10]: 107 % of control

Compound: S=C(N/N=C1\C=Cc2ccccc2C1)N/N=C1\C=Cc2ccccc2C1
- T/C (endpoint: mean survival time, dose: 50.0 mg/kg/injection, schedule: Q04DX003 (ip), vehicle: saline): 87 % of control
- T/C [7]: 93 % of control
- T/C [8]: 93 % of control

Compound: CN1C2C=C(c3ccccc3)C(Br)C1CC2 (configuration not stated)
- T/C (endpoint: mean survival time, dose: 20.0 mg/kg/injection, schedule: Q01DX009 (ip), vehicle: saline): 103 % of control
- T/C (endpoint: mean survival time, dose: 40.0 mg/kg/injection, schedule: Q01DX009 (ip), vehicle: saline): 112 % of control
- T/C (endpoint: mean survival time, dose: 80.0 mg/kg/injection, schedule: Q01DX009 (ip), vehicle: saline): 110 % of control

Compound: O=C(/C=C/c1ccc(Cl)cc1)c1ccc(Cl)cc1
- T/C [4]: 98 % of control
- T/C [5]: 90 % of control
- T/C [6]: 93 % of control

Compound: Cn1ncc2c1NC(c1ccc(F)cc1)SCC2=O (configuration not stated)
- T/C (endpoint: mean survival time, dose: 25.0 mg/kg/injection, schedule: Q01DX009 (ip), vehicle: gum acacia): 95 % of control and 96 % of control
- T/C (endpoint: mean survival time, dose: 50.0 mg/kg/injection, schedule: Q01DX009 (ip), vehicle: gum acacia): 97 % of control and 101 % of control
- T/C (endpoint: mean survival time, dose: 100.0 mg/kg/injection, schedule: Q01DX009 (ip), vehicle: gum acacia): 92 % of control and 95 % of control and 103 % of control
- T/C (endpoint: mean survival time, dose: 200.0 mg/kg/injection, schedule: Q01DX009 (ip), vehicle: gum acacia): 96 % of control and 104 % of control
- T/C (endpoint: mean survival time, dose: 400.0 mg/kg/injection, schedule: Q01DX009 (ip), vehicle: gum acacia): 100 % of control

Compound: COc1ccccc1N=O
- T/C (endpoint: mean survival time, dose: 12.5 mg/kg/injection, schedule: Q01DX001 (ip), vehicle: Klucel (hydroxypropylcellulose) (HPC)): 93 % of control
- T/C (endpoint: mean survival time, dose: 25.0 mg/kg/injection, schedule: Q01DX001 (ip), vehicle: Klucel (hydroxypropylcellulose) (HPC)): 96 % of control
- T/C (endpoint: mean survival time, dose: 50.0 mg/kg/injection, schedule: Q01DX001 (ip), vehicle: Klucel (hydroxypropylcellulose) (HPC)): 93 % of control

Compound: COC1=C(c2ccccc2)/C(=C/c2ccccc2)OC1=O
- T/C [1]: 104 % of control
- T/C [2]: 96 % of control
- T/C [3]: 93 % of control

Compound: O=[N+]([O-])c1ccc(Nc2cccc(Cl)c2)c([N+](=O)[O-])c1
- T/C [5]: 87 % of control

Compound: O=C(O)COC(C[N+](=O)[O-])C(Cl)(Cl)Cl (configuration not stated)
- T/C [4]: 93 % of control
- T/C [5]: 104 % of control
- T/C [6]: 98 % of control

Compound: O=C(O)C(=O)O.[NH-]CC1CCCC[N-]1.[Pt+2] (configuration not stated)
- T/C (endpoint: mean survival time, dose: 12.5 mg/kg/injection, schedule: Q04DX003 (ip), vehicle: saline with Tween-80): 164 % of control
- T/C (endpoint: mean survival time, dose: 25.0 mg/kg/injection, schedule: Q04DX003 (ip), vehicle: saline with Tween-80): 201 % of control
- T/C (endpoint: mean survival time, dose: 50.0 mg/kg/injection, schedule: Q04DX003 (ip), vehicle: saline with Tween-80): 238 % of control

Compound: O=C(O)CCC(=O)c1ccc(Br)cc1
- T/C [12]: 94 % of control
- T/C [4]: 101 % of control
- T/C [9]: 103 % of control
- T/C [5]: 97 % of control
- T/C [10]: 91 % of control
- T/C [6]: 89 % of control
